Measured values as given in US20250177392A1, “BROAD SPECTRUM INHIBITORS OF CYTOMEGALOVIRUS” (MICROBIOTIX, INC., priority 2022, published 2025).

Experiments:
CYP3A4 = CYP3A4 (Homo sapiens, UniProt P08684); experiment: CYP3A4 inhibition at 10 μM; type: in vitro ADME; details: % inhibition of CYP3A4 at 10 μM
[1] = system: CMV strains AD169, TB40/E^Flag-YFP, Towne, and TR; experiment: CMV infection assay, panel of strains in fibroblasts; type: cell-based, Human cytomegalovirus; details: Human betaherpesvirus 5, AD169, Fibroblast, read-out: IC50 values ranging
Experimental: HCMV strains AD169 (A), TB40/E Flag YFP (B), Towne (C and G), TR (D and F), Merlin (E), and TB40/E (H) infection of NHDF cells pre-treated with DMSO and 0, 1, 5, or 20 μM MBX-4992 or MBXC-4336, respectively, were assessed at 24 hpi based on IE1 expression by anti-IE1 immunostain. TB40/E (I) (MOI 0.25) and AD169^R (J) (MOI 0.25) infection of HTR-svNeo cells treated with DMSO and 0, 1, 5, or 20 μM MBX-4992 were assessed at 24 hpi based on IE1 expression by anti-IE1 immunostain. The % infection was determined using DMSO-treated as 100% infection. The error bars represent values in triplicate. Statistical tests were performed using ordinary one-way ANOVA with multiple comparisons to DMSO treated cells as a control and a Dunnett's post-test *, p<0.05; **, p<0.01; ****, p<0.0001.
Fibroblasts and ARPE-19 cells (10^4) were plated in 96-well plates (Greiner, Monroe, NC). […] At 18 hours post infection (hpi) cells were stained using a rabbit anti-IE1 antibody followed by an anti-rabbit Alexa 647 and measured using a Celigo Cytometer (Parsons et al., Antiviral Res., 193:105124 (2021); Stein et al., Nat. Commun., 10:2699 (2019)). Using the DMSO treated cells as 100% infection, the percent infection of the NAPA compound-treated cells was determined. […]

AD169 and AD169^R = experiment: IE1 expression 2 days post-infection in fibroblasts; type: cell-based, Human cytomegalovirus
Experimental: HCMV strains AD169^R (A) and AD169 (B) infection (MOI 0.2) of NHDF cells pre-treated with 0, 5, and 20 μM MBX-4992 were assessed at 1 dpi or 2 dpi based on IE1 expression by anti-IE1 immunostain. The % infection was determined using DMSO-treated as 100% infection. The error bars represent values in triplicate. Statistical tests were performed using ordinary one-way ANOVA with multiple comparisons to DMSO treated cells as a control and a Dunnett's post-test; **, p<0.01; ****, p<0.0001. (C) Total cell lysates from AD169^R-infected (MOI 0.2) ARPE-19 cells pre-treatment with DMSO, MBX-4992 (1-20 μM) or heparin (50 μg/mL) collected at 24 hpi were subjected to Western blot analysis using a rabbit anti-IE-1 antibody (lanes 1-7) and an anti-GAPDH antibody (lanes 8-14) as a loading control. The molecular weight markers and respective proteins are indicated.
(FIG. 11A-G). […] The IC50 values were similar in diverse cell types and among the different strains further supporting that NAPA compounds are effective at inhibiting CMV infection.

HSV-1 E-377 = experiment: Herpes virus panel neutralization, HSV-1; type: cell-based, Herpes simplex virus 1
Experimental: To determine the specificity of MBX-4992, additional neutralization experiments were conducted using a panel of herpes viruses performed in the presence of MBX-4992. […] Collectively, the antiviral activity of MBX-4992 is equivalent to that of GCV indicating specific inhibition of CMV replication.

AD169^R = experiment: Generation of infectious virions (supernatant infectious dose); type: cell-based, Human cytomegalovirus; details: MRC5 fibroblasts and ARPE-19 cells, MOI 0.5, 1-20 μM for 5 days
Experimental: FIGS. 13A and B are graphs showing that MBX-4992 limits the generation of infectious virions in fibroblasts and epithelial cells. MRC5 and ARPE-19 cells infected with AD169^R (MOI 0.5) were treated with DMSO, MBX-4992 (1, 5, 10, and 20 μM), and ganciclovir (5 μM) for 5 days, washed, and replaced with media for 3 days. The supernatant of MRC5 treated-cells (A) and ARPE-19-treated (B) cells was used to infect MRC5 cells. Virus infection was analyzed 24 hpi using GFP fluorescent signal as the readout with a Celigo cytometer. The viral infectious dose (IU/ml) was determined from each condition. The error bars are based on differences of infectious dose from 5 samples. Statistical tests were performed using ordinary one-way ANOVA with multiple comparisons to DMSO treated cells as a control and a Dunnett's post-test ****, p<0.0001.

TB40/E = experiment: Plaque assay, MBX-4992 and ganciclovir alone and in combination; type: cell-based, Human cytomegalovirus; details: ARPE-19 and NHDF cells, 10 dpi; MBX-4992 1-20 μM, ganciclovir 2.5 μM
Experimental: At 10 day post-infection, representative whole well images of plaques >10,000 μm^2 (A and B) were quantified based on GFP fluorescence intensity and calculated relative to DMSO controls (C and D). Statistical tests were performed using ordinary one-way ANOVA with multiple comparisons to DMSO treated cells as a control and a Dunnett's post-test. *, p<0.05; **, p<0.01; ***, p<0.001; ****, p<0.0001.
At 10 days post-infection, representative whole well images of plaques >10,000 μm^2 (A and B) were quantified based on GFP fluorescence intensity and calculated relative to DMSO controls (C and D).

NHDF cells = experiment: CellTiter Glo ATP luciferase assay; type: cell-based, human; details: human, 6 days
Experimental: Fibroblasts were treated with increasing concentrations of MBX-4992 and MBXC-4336 for up to 6 days and cell number was measured periodically using Hoechst stain to quantify cell proliferation (A and B). Cyclohexamide (CHX) and DMSO (−) were used as positive and negative controls for cytotoxicity respectively. Cell cytostaticity (C and D) was assessed using ATP-based CellTiter Glo luciferase assay following extended incubation with increasing concentrations of MBX-4992 and MBXC-4336 for 1 or 6 days. Relative light units (RLU) were measured following cell lysis and normalized to DMSO treated cells for each time point.
The CellTiter Glo Luminescent Assay (Promega Inc, Madison, WI) was performed according to the manufacturer's instruction. NHDF cells (10^4) were plated in a 96-well plate overnight and treated with MBX-4992 or MXC-4336 ([…]) in triplicate for up to 6 days. Cyclohexamide (50 μg/mL) was used as a control. CellTiter Glo substrate was added in a 1:1 ratio with media and CellTiter-Glo reagent followed by the analysis of luciferase activity (relative light units, RLU) using a BioTek Synergy H1 microplate reader. In parallel, an identical plate was labelled with Hoescht reagent (25 μg/mL) to quantify the cell number using a Celigo Cytometer.
Next, the cytostaticity and cytotoxicity of treatment with MBX-4992 and MBXC-4336 was analyzed. […]

Sequence of CYP3A4 (P08684 whole entry, species assumed): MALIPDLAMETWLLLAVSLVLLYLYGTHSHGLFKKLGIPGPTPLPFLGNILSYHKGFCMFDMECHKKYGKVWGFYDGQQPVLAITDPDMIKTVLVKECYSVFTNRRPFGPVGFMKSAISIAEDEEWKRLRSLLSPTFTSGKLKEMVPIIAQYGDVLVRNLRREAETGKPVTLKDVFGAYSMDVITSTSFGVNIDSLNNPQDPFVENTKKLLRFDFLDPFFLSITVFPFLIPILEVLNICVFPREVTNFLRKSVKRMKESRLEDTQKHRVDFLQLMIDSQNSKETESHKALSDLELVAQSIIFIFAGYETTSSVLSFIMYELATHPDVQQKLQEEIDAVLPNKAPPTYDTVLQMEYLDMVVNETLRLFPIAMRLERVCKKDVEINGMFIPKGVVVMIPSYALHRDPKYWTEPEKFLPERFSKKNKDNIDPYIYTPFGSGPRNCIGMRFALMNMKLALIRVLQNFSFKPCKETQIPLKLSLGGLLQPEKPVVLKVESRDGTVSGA

SMILES	CYP (CYP3A4)	IC50 [1]	IE1 expression (AD169 and AD169^R)	SI (HSV-1 E-377)	IC50 (HSV-1 E-377; Human alphaherpesvirus 1)	generation of infectious virions (AD169^R)	viral plaques >10,000 μm^2, single drug (TB40/E)	decrease of luciferase activity (NHDF cells)
Cc1nc(Nc2ccc(NC(=O)c3ccco3)cc2)cc(N2CCCC2)n1 [MBX-4992]	<10%	0.5 to 8 µM	similarly effective at limiting IE1 expression	<2	> 30 µM	significantly decreased generation of infectious AD169^R virions	decreased	
Cc1nc(Nc2cccc(NC(=O)c3ccco3)c2)cc(N2CCCCC2)n1 [MBXC-4336]								10%
